Data: PMC7093416, “Selective USP7 inhibition elicits cancer cell killing through a p53-dependent mechanism” (Scientific Reports, 2020)

System: MCF7 cells
Experiment: 3' DGE RNA-seq transcriptional profiling
Type: cell-based
Parameters: log2FoldChange: concentration or dose not given beside the values
Conditions: for log2FoldChange: gene ABCA12
Procedure: The DGE RNA sequencing was performed following the published method[39],[40] with modifications as described below. MCF7 cells were seeded in a 384 well plate at 2500 cells per well, allowed to adhere for 24 hours, then treated with two doses in triplicate of XL177A, XL177B, Nutlin-3, or DMSO. After 24 hours of treatment, an EL405x plate washer (BioTek) was used to aspirate the media and wash once with PBS. Cells were lysed in the plate with 10 µl of lysis buffer (1x Qiagen TCL, 1% BME) for 5 minutes at room temperature, then stored at −80 °C. Automated liquid handling was performed with assistance from ICCB-Longwood Screening Facility. A BRAVO Automated Liquid Handling Platform (Agilent) was used for RNA extraction as follows. The lysate was mixed and 10 µl was transferred to a 384 well PCR plate. 28 µl of homemade SPRI[66] (solid-phase reversible immobilization) beads were added to the lysate and mixed. After 5 minutes, the beads were pulled down by placing the plate on a magnet, then the beads were washed twice with 80% ethanol. Beads were air dried for 1 minute, then 20 µl of nuclease free water was added, the plate was removed from the magnet, and the beads were resuspended. After 5 minutes, the plate was placed back on the magnet to pull down the beads. The supernatant was transferred to a fresh 384 well plate. RNA quantity was checked with the Qubit Fluorometer and RNA quality was assessed using the Agilent BioAnalyzer RNA 6000 Pico Kit. The BRAVO platform was again used to transfer 5 µl of supernatant was transferred to a fresh 384 well plate with RT master mix and 1 µl of barcoded E3V6NEXT adapters for reverse transcription and template switching. The plate was incubated for 90 minutes at 42 °C, then cDNA was pooled, purified with the QIAquick PCR purification kit. The full-length cDNA was treated with Exonuclease I to remove excess primers for 30 minutes at 37 °C then amplified x5 cycles with Advantage 2 PCR Enzyme System using the SINGV6 primer. The amplified full-length cDNA was purified with Agencourt AMPure XP magnetic beads and quantitated by Qubit Fluorometer. The sequencing library was prepared using the Nextera DNA kit following the manufacturer’s instructions. Briefly, 55 ng of cDNA was tagmented for 5 minutes at 55 °C then purified using Zymo DNA Clean & Concetrator-5 column, then amplified x7 cycles and purified using a 0.9x ratio of AMPure XP magnetic beads. The library size distribution was assessed by Agilent BioAnalyzer HS DNA Kit before it was quantified by qPCR and sequenced on an Illumina NextSeq at the Biopolymers Facility at Harvard Medical School.
The bcbio-nextgen single cell RNA-seq analysis pipeline (https://bcbio-nextgen.readthedocs.io/en/latest/) was used to deconvolve the well barcodes and convert reads to counts. Any detected barcode that differed by more than one base from an expected barcode was removed. Unique reads were identified using unique molecular identifiers (UMIs) in order to remove PCR duplicates. The reads remaining after these filters were aligned to the transcriptome (GRCh38) using RapMap[67]. The R package DESeq. 2 version 1.20.0 (R version 3.5.1) was used for differential expression analysis.

| SMILES | direct p53 target genes (24 hours, low and high dose) | DREAM complex target genes (24 hours, low and high dose) | log2FoldChange (concentration 0.1) | log2FoldChange (concentration 1) | hierarchical clustering of transcriptional profile (24 hours, 0.1 or 1 μM) |
| --- | --- | --- | --- | --- | --- |
| COc1ccc(C2=N[C@@H](c3ccc(Cl)cc3)[C@@H](c3ccc(Cl)cc3)N2C(=O)N2CCNC(=O)C2)c(OC(C)C)c1 [Nutlin-3A] | enriched for the direct p53 target genes |  |  |  |  |
| CN1CCN(CCC(=O)Nc2ccc3c(=O)n(CC4(O)CCN(C(=O)[C@@H](CCCNC(=O)c5ccc6c(Cl)c7c(nc6c5)CCCC7)Cc5ccccc5)CC4)cnc3c2)CC1 [XL177A] | strongly upregulated the p53 targets | strongly downregulated the DREAM complex targets | 0.471 | 0.4983 |  |
| CN1CCN(CCC(=O)Nc2ccc3c(=O)n(CC4(O)CCN(C(=O)[C@H](CCCNC(=O)c5ccc6c(Cl)c7c(nc6c5)CCCC7)Cc5ccccc5)CC4)cnc3c2)CC1 [XL177B] |  |  | 0.1473 | 0.2612 | clustered with the vehicle (DMSO)-treated control cells |
